Data from US20220408724A1, “METHOD FOR CONTROLLING METABOLISM OF BRANCHED FATTY ACID” (KAO CORPORATION, priority 2019, published 2022).

What was measured:
Rhodotorula mucilaginosa = assay: Measurement of viable count on fabric (PDA agar); format: cell-based
Description: (§1) After culture on fabric prepared in the same manner as in the above (1), 9 mL of an LP diluent (manufactured by NIHON PHARMACEUTICAL CO., LTD.) was added, and the extraction of the bacteria was carried out under ultrasound for 10 minutes. The extraction liquid was poured and mixed to an SCD-LP agar medium (NIHON PHARMACEUTICAL CO., LTD.), and culture was thereafter carried out at 37° C.; for a day. The number of colonies obtained on each piece of the fabric was counted, and a common logarithm value thereof was measured as the viable bacterial count. […] In addition, the […], the more the viable bacterial count of the microorganism is maintained.
The metabolism of 14-methylhexadecanoic acid by yeast of the genus Rhodotorula was tested in the same manner as in example 1.
In this example, Rhodotorula mucilaginosa (strain isolated from clothing) was used as a microorganism.
Further, in this example, the bacteria were precultured under conditions of a PDA agar medium (Difco), 30° C.; and 48 hours.
Further, in this example, a bacterial suspension of 10^7 (CFU/ml) prepared by using a PDB liquid medium (Difco) diluted to 1/10 with ion exchange water was used as a bacterial suspension.
Further, in this example, after the extraction of the bacteria in (3) of example 1, they were poured and mixed to a PDA agar medium (Difco) and thereafter cultured at 30° C.; for 2 days, and the viable bacterial count was measured.
(§2) Note that, in this example, C12OH (1-dodecanol) was used as the metabolism controlling agent.

Staphylococcus aureus = assay: Measurement of viable bacterial count on fabric; format: cell-based
Description: as §1
The metabolism of 14-methylhexadecanoic acid by bacteria of the genus Staphylococcus (Staphylococcus aureus) was tested in the same manner as in example 1.
In this example, Staphylococcus aureus (strain isolated from clothing) was used as a microorganism.
Further, in this example, a bacterial suspension of 10^7 (CFU/ml) prepared by using an NB liquid medium diluted to 1/10 with ion exchange water was used as a bacterial suspension.
as §2

CCCCCCCCCCCCO [Example C12OH, 1-dodecanol]
Bacterial count (Log (cfu/fabric cm^2)) (Rhodotorula mucilaginosa; agent 250 μg/fabric g): 4.9 Log (cfu/fabric cm^2) | Bacterial count (Log (cfu/fabric cm^2)) (Rhodotorula mucilaginosa; agent 500 μg/fabric g): 4.7 Log (cfu/fabric cm^2) | Bacterial count (Log (cfu/fabric cm^2)) (Rhodotorula mucilaginosa; agent 1000 μg/fabric g): 4.8 Log (cfu/fabric cm^2) | Bacterial count (Log (cfu/fabric cm^2)) (Staphylococcus aureus; agent 100 μg/fabric g): 6.4 Log (cfu/fabric cm^2) | Bacterial count (Log (cfu/fabric cm^2)) (Staphylococcus aureus; agent 500 μg/fabric g): 6.2 Log (cfu/fabric cm^2)
